From US20050209336A1, “EP2 receptor agonists” (priority 2003, published 2005)
Where two headings read alike, the source gives them in different places.

Key:
Assay type in all cases: cell-based, human
[1] = tested on: TNFα production by lymphocytes; assay: Lymphocyte assay: TNFα production; conditions: Homo sapiens, Lymphocyte, inhibition of TNFα production by lymphocytes, mean of three donors
From the text: (§1) Lymphocytes are mononuclear leukocytes, which participate in specific immune responses to foreign antigens and in the manifestation of auto-immune diseases. T lymphocytes produce IL-2, a key factor for lymphocyte activation and proliferation, in response to antigen stimulation via the CD3-T cell receptor complex and the pathway involved in this response is the NF-AT. […] A lymphocyte assay was designed to model this response and to determine the effect of test compound on IL-2 production by anti-CD3-stimulated T cells isolated from peripheral blood. This assay uses a sub-optimal dose of an anti-CD3 monoclonal antibody (OKT3, 25 ng/ml) immobilised to a 96-well plate to stimulate a T cell response. The level of IL-2 released into the cell culture supernatants was quantified using a standard sandwich ELISA. Similarly, other cytokines such as TNFα and IFN-γ can also be measured in the same assay.
(§2) Human peripheral blood mononuclear cells from healthy volunteers were isolated from whole blood by Ficoll-Hypaque density centrifugation and adherence to plastic. The non-adherent lymphocyte fraction was used to set up the lymphocyte assay and the adherent monocytes were then recovered by scraping and subsequently used in the monocyte assay.
Lymphocytes were then seeded to a 96-well plate pre-coated with anti-CD3 monoclonal antibody (OKT3) at 25 ng/ml and immediately, the test compounds (Peak 1, mixture 1 acid; Peak 1, mixture 2 acid; AH-13205 racemate; PGE2) in appropriate dilutions were added to corresponding wells according to the experimental design. The plate was incubated for 24 hours at 37° C. with 5% CO2 in air and supernatants were recovered for ELISA analysis at the end of incubation period. The levels of IFN-γ was assessed by using the ProteoPlex 16 well human cytokine array assay kit according to the manufacturer's instruction.

lymphocyte proliferation = assay: Lymphocyte proliferation driven by immobilised anti-CD3 antibody; conditions: Homo sapiens, inhibition of lymphocyte proliferation, 72 h, mean of three donors
From the text: as §1, §2
For the measurement of lymphocyte proliferation driven by immobilised anti-CD3 monoclonal antibody, the assay was set up in the same way as for the measurement of IL-2 release, except that the cells were cultured for 72 hours in the presence or absence of test compounds. Four hours prior to the termination of the proliferation assay, a novel tetrazolium compound solution supplied by Promega in the format of Cell Proliferation Assay Kit was added to individual wells according to the manufacturer's instruction. The plate was then placed back in the incubator for the remaining 4 hours and the […] reaction was measured using a spectrophotometer at an absorbent wavelength of 490 nm (SpectraMax, Molecular Devices) according to the manufacturer's instruction.

[2] = tested on: TNFα production by alveolar macrophages; assay: Alveolar macrophage assay: LPS-induced TNFα release; conditions: Homo sapiens, Macrophage, inhibition of TNFα production, LPS 1 μg/ml, 24 h, mean of three donors
Description: Human lung parenchyma was cut into small pieces and perfused with ice-cold phosphate buffered saline (PBS) to remove contaminating blood and mucus. The tissues were then chopped with scissors in the presence of Minimum Essential Medium supplemented with penicillin, streptomycin, L-glutamine and DNase (0.25 mg/ml). The chopped tissues were shaken gently to dislodge the macrophages. A crude cell suspension was then obtained by the removal of the tissues with a sterile filter (150 μm pore size). The resulting cell suspension was spun and the cell pellet collected. Contaminating red blood cells were depleted with a red blood cell lysis buffer and the remaining cells washed twice with PBS by centrifugation. Alveolar macrophages were then purified from this cell preparation by using a positive selection method for CD14-molecule bearing cells using a VarioMac™ Separator and respective positive selection reagents and columns supplied by Miltenyi Biotec Ltd according to the manufacturer's instruction.
For the assay, alveolar macrophages were resuspended in complete culture medium consisting of RPMI1640 supplemented with 10% foetal calf serum, L-glutamine and antibiotics. The cells were then plated into 24 well plates (4×10^5 cell/well) and incubated overnight at 37° C. with 5% CO2 in air to allow cell adherence. The exhausted medium was then removed from the plates and the plates rinsed briefly with fresh medium before the addition of test compound solutions. The test compounds were incubated with the cells for 30 minutes before the addition of E. Coli LPS (1 μg/ml). The assay plates were incubated in a humidified incubator at 37° C. with 5% CO2 in air for 24 hours. The release of TNFα by the cells into the culture supernatants was quantified using an ELISA kit (DuoSet® human TNFα ELSIA Development System) supplied by R+D Systems (Europe) according to the manufacturer's instruction. Indomethacin at 3 μM was included in all treatments to inhibit the possible release of endogenous prostaglandin E2.

[3] = log scale, read-out: Mean Log (EC50) (converted)

EC50 ([1]; read-out: Mean EC50): 2.33 µM
EC50 [1, 3]: 2.33 µM
EC50 ([2]; read-out: Mean EC50): 7.02 µM
EC50 [2, 3]: 7.01 µM
SMILES: CCCCC[C@H](O)c1ccc([C@H]2CCC(=O)[C@@H]2CCCCCCC(=O)O)cc1 (single isomer, unassigned) [Peak 1, Mixture 1 acid]
EC50 (lymphocyte proliferation; read-out: Mean EC50): 10 µM
EC50 (lymphocyte proliferation; [3]): 10 µM
